ChEMBL document CHEMBL1944561, “Discovery and SAR exploration of a novel series of imidazo[4,5-b]pyrazin-2-ones as potent and selective mTOR kinase inhibitors” (Bioorg Med Chem Lett, 2011)

Legend:
[1] = target: T1, Serine/threonine-protein kinase mTOR (Homo sapiens, UniProt P42345); test: Inhibition of mTOR
PC-3 = test: Antiproliferative activity against human PC3 cells
[2] = target: Phosphatidylinositol 4,5-bisphosphate 3-kinase catalytic subunit alpha isoform (Homo sapiens, UniProt P42336); test: Inhibition of PI3Kalpha
[3] = target: T1, Serine/threonine-protein kinase mTOR; test: Inhibition of mTOR-mediated Akt phosphorylation in human PC3 cells; assay type: cell-based, PC-3
[4] = target: T1, Serine/threonine-protein kinase mTOR; test: Inhibition of mTOR-mediated S6 phosphorylation in human PC3 cells; assay type: cell-based, PC-3
[5] = Metabolic stability in rat hepatocytes assessed as compound remaining after 60 mins; assay type: ADME, cell-based, Hepatocyte; conditions: read-out: Stability

Chain of Phosphatidylinositol 4,5-bisphosphate 3-kinase catalytic subunit alpha isoform (P42336 whole entry, canonical isoform): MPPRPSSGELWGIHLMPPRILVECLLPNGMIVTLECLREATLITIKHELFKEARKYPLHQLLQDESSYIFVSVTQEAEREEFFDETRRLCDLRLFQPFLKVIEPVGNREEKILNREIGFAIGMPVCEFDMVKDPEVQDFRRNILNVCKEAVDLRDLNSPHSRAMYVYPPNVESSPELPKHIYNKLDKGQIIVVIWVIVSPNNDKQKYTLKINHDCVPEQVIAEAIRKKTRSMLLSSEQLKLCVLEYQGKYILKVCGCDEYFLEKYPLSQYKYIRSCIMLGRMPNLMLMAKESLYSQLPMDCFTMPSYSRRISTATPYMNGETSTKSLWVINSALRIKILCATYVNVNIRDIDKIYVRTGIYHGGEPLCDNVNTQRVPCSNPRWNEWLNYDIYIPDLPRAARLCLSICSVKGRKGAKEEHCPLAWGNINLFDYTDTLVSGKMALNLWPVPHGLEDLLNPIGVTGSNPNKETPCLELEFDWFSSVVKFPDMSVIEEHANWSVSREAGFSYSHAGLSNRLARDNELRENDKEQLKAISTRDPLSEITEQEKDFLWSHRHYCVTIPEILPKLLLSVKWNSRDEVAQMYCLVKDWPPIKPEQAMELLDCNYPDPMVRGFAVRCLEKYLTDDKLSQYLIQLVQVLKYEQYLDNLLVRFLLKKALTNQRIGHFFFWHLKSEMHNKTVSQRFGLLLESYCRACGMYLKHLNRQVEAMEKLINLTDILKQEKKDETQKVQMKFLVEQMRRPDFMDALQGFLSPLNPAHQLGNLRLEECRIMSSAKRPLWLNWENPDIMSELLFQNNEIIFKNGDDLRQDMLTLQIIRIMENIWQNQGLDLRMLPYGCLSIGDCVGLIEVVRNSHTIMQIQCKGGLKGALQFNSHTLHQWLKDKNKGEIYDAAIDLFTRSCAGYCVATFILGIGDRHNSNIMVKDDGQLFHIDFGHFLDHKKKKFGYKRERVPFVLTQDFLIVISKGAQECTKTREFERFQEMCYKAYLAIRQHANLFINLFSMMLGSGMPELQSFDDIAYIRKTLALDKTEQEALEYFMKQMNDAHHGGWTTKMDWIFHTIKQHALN

SMILES	IC50 [1] [nM]	also measured
O=c1[nH]c2ncc(-c3ccccc3)nc2n1CC1CCCCC1	> 10000	
O=c1[nH]c2ncc(-c3ccc(O)cc3)nc2n1Cc1cccc(O)c1	1050	
O=c1[nH]c2ncc(-c3ccc(O)cc3)nc2n1CC1CCOCC1	340	
CO[C@H]1C[C@@H]2CC[C@@H](C)[C@@](O)(O2)C(=O)C(=O)N2CCCC[C@H]2C(=O)O[C@H]([C@H](C)C[C@@H]2CC[C@@H](O)[C@H](OC)C2)CC(=O)[C@H](C)/C=C(\C)[C@@H](O)[C@@H](OC)C(=O)[C@H](C)C[C@H](C)/C=C/C=C/C=C/1C [SIROLIMUS]		IC50 (PC-3): < 10 nM
O=c1[nH]c2ncc(-c3ccc4[nH]ccc4c3)nc2n1CC1CCCCC1	63	IC50 [2]: > 30000 nM
NC(=O)[C@H]1CC[C@@H](n2c(=O)[nH]c3ncc(-c4ccc(O)cc4)nc32)CC1	179	IC50 (PC-3): > 5000 nM; IC50 [3]: > 5000 nM; IC50 [4]: > 5000 nM
COCCn1c(=O)[nH]c2ncc(-c3ccc(O)cc3)nc21	2380	
CN1CCC(Cn2c(=O)[nH]c3ncc(-c4ccc(O)cc4)nc32)CC1	14100	
O=c1[nH]c2ncc(-c3ccc(-c4cnco4)cc3)nc2n1CC1CCCCC1	1360	
COC(=O)c1ccc(-c2cnc3[nH]c(=O)n(CC4CCCCC4)c3n2)cc1	> 10000	
O=c1[nH]c2ncc(-c3ccc(CO)cc3)nc2n1CC1CCCCC1	60	IC50 [2]: > 30000 nM; remaining at 1 h [5]: 8%
O=c1[nH]c2ncc(-c3ccc(O)cc3)nc2n1CC1CCCCC1	780	
O=C(O)c1ccc(-c2cnc3[nH]c(=O)n(CC4CCCCC4)c3n2)cc1	130	IC50 [2]: 23500 nM
NCc1ccc(-c2cnc3[nH]c(=O)n(CC4CCCCC4)c3n2)cc1	8300	
Nc1nc2cc(-c3cnc4[nH]c(=O)n(CC5CCOCC5)c4n3)ccc2[nH]1	10	
O=c1[nH]c2ncc(-c3ccc(-c4cn[nH]c4)cc3)nc2n1CC1CCCCC1	120	IC50 [2]: > 30000 nM
O=c1[nH]c2ncc(-c3ccc(-c4nc[nH]n4)cc3)nc2n1CC1CCCCC1	9	
O=c1[nH]c2ncc(-c3ccc(O)cc3)nc2n1C1CCOCC1	1670	

SMILES	IC50 [1] [nM]	also measured
O=c1[nH]c2ncc(-c3ccc(-c4nn[nH]n4)cc3)nc2n1CC1CCCCC1	1590	
O=c1[nH]c2ncc(-c3ccc4[nH]ncc4c3)nc2n1CC1CCCCC1	190	IC50 (PC-3): 2120 nM; IC50 [2]: 12600 nM; IC50 [4]: 633 nM
O=c1[nH]c2ncc(-c3ccc4[nH]ccc4c3)nc2n1CC1CCOCC1	21	IC50 (PC-3): 602 nM; IC50 [3]: 50 nM; IC50 [2]: > 30000 nM; IC50 [4]: 231 nM
Nc1nc2ccc(-c3cnc4[nH]c(=O)n(CC5CCCCC5)c4n3)cc2[nH]1	2	IC50 (PC-3): 566 nM; IC50 [3]: 92 nM; IC50 [4]: 201 nM
O=c1[nH]c2ncc(-c3ccc(O)cc3)nc2n1C1CCCCC1	2880	
CC(C)Cn1c(=O)[nH]c2ncc(-c3ccc(O)cc3)nc21	1020	
CNc1nc2cc(-c3cnc4[nH]c(=O)n(CC5CCOCC5)c4n3)ccc2[nH]1	6	IC50 (PC-3): > 5000 nM; IC50 [2]: > 30000 nM; IC50 [4]: > 5000 nM
O=c1[nH]c2ncc(-c3ccc(-c4ncc[nH]4)cc3)nc2n1CC1CCOCC1		IC50 (PC-3): 916 nM
NC(=O)c1ccc(-c2cnc3[nH]c(=O)n(CC4CCCCC4)c3n2)cc1	70	IC50 [2]: > 30000 nM
NC(=O)[C@H]1CC[C@H](n2c(=O)[nH]c3ncc(-c4ccc(O)cc4)nc32)CC1	178	IC50 (PC-3): > 5000 nM; IC50 [3]: > 5000 nM; IC50 [4]: > 5000 nM
CNC(=O)c1ccc(-c2cnc3[nH]c(=O)n(CC4CCCCC4)c3n2)cc1	120	
CC(C)n1c(=O)[nH]c2ncc(-c3ccc(O)cc3)nc21	1040	
CC(C)NC(=O)c1ccc(-c2cnc3[nH]c(=O)n(CC4CCCCC4)c3n2)cc1	8900	
O=c1[nH]c2ncc(-c3ccc4[nH]cnc4c3)nc2n1CC1CCOCC1	30	
O=c1[nH]c2ncc(-c3ccc4cc[nH]c4c3)nc2n1CC1CCCCC1	3500	
O=c1[nH]c2ncc(-c3cnc4[nH]cnc4c3)nc2n1CC1CCOCC1	390	
O=c1[nH]c2ncc(-c3ccc(-n4ccnn4)cc3)nc2n1CC1CCCCC1	> 10000	
